From publication PMC9354638, “Targeting p21-activated kinase 4 (PAK4) with pyrazolo[3,4-d]pyrimidine derivative SPA7012 attenuates hepatic ischaemia-reperfusion injury in mice” (Journal of Enzyme Inhibition and Medicinal Chemistry, 2022)

Columns and labels:
[1] = test system: primary hepatocytes; experiment: Hypoxia-reoxygenation (H/R) injury in primary hepatocytes; type: cell-based, mouse
Experimental: Primary hepatocytes were prepared from 8 to 10 week old C57BL/6 male mice by perfusion. […] Hepatocytes were resuspended in DMEM/F12 supplemented with 10% FBS, 10 units/mL penicillin, 10 μg/mL streptomycin, and 10 nM dexamethasone mixed with 42% Percoll, and then centrifuged for 5 min at 1,300 rpm. The cells were plated at 1 × 10^6 cells/well in 6-well culture dishes.
Primary hepatocytes were incubated at 37 °C in anaerobic jars (Oxoid, Basingstoke, Hampshire, UK) with oxygen-absorbing packs (AnaeroGen, Oxoid). […] Following various periods of hypoxia, reoxygenation of cells was initiated by opening the chamber and replacing the hypoxic medium with an oxygenated medium.
H/R-induced apoptosis was monitored using the Annexin V-propidium iodide (PI) double-staining kit (BD Biosciences, San Jose, CA, USA) according to the instructions of the manufacturer, allowing quantification by flow cytometry (BD Biosciences). The proportion of apoptotic cells was defined as the percentage of Annexin V-positive cells […].
Intracellular ROS levels were measured using 2′,7′-dichlorofluorescein diacetate (DCF-DA), which converts to fluorescent […] in cells when exposed to ROS. Briefly, after H/R injury, hepatocytes were loaded with 20 μM DCF-DA (Invitrogen) for 10 min at 37 °C. The DCF fluorescence intensity was measured by fluorescence spectrophotometry with 485 nm excitation and 538 nm emission and expressed as a percentage relative to control.
Alanine aminotransferase (ALT) and aspartate aminotransferase (AST) in serum (Asan Pharm, Seoul, Korea), glutathione (GSH, Arbour Assays, Ann Arbour, MI, USA), malondialdehyde (MDA, ab118970, Abcam, Cambridge, UK) in liver tissues, and lactate dehydrogenase (LDH, Biovision, Milpitas, CA, USA) in culture medium were analysed using specific kits. Serum levels of IL-1β, IL-6, TNF-α, and CCL-2 were detected using ELISA kits (all from Invitrogen).
Total RNA was extracted from frozen liver tissues or primary hepatocytes using TRIzol reagent (Invitrogen). RNA was treated with isopropanol, dried using 70% ethanol, and dissolved in diethyl pyrocarbonate-treated distilled water. First-strand cDNA was generated using the random hexamer primer provided in the first-strand cDNA synthesis kit (Applied Biosystems, Foster City, CA, USA). Specific primers were designed using PrimerBank (https://pga.mgh.harvard.edu/primerbank, Table 1). qPCR reactions were performed in a final volume of 10μ L containing 10 ng reverse-transcribed total RNA, 200 nM forward and reverse primers, and PCR master mixture. qPCR was performed in 384-well plates using an ABI Prism™ 7900HT Sequence Detection System (Applied Biosystems).
Nuclear and cytoplasmic fractions were prepared using the NE-PER Nuclear and Cytoplasmic Extraction kit (Thermo Fisher Scientific, Waltham, MA, USA). Tissue homogenates or cell lysates (15 μg) were separated by 6–14% SDS-PAGE and transferred to PVDF membranes. After blocking with 5% skim milk, blots were probed with primary antibodies against: PAK4 (G222), p-PAK4 (S474), p-IKKβ (S176/180), p-IκBα (S32), p-p65 (S536), cleaved caspase-3 (Asp175), Bax (Cell Signalling Technology, Beverly, MA, USA), GAPDH (A531), lamin B1(L75), Bcl2(P65), NQO1 (F252) (Bioworld Technology, St Louis Park, MN, USA), NF-κB p65 (C-20), IKBα (H-4), IKKβ (10A9B6) (Santa Cruz Biotechnology, Dallas, TX, USA), Nrf2 (Proteintech, Rosemont, IL, USA), HO-1 (Enzo Life Sciences, Farmingdale, New York, USA), and p-Thr (Merck KGaA, Darmstadt, Germany). For co-immunoprecipitations, 600 μg protein was incubated with anti-Nrf2 antibodies (Proteintech, Sankt Leon-Rot, Germany) overnight at 4 °C followed by protein G agarose for 2 h at 4 °C. Blots were probed with antibodies against PAK4, Nrf2, or p-Thr. Immunoreactive bands were detected with a Las-4000 imager (GE Healthcare Life Science, Pittsburgh, PA, USA).

[2] = test system: Nrf2 transcriptional activity (ARE); experiment: Nrf2 reporter gene assay (ARE luciferase) in HEK293T cells; type: cell-based, human; conditions: 24 h transfection
Experimental: The human embryonic kidney cell line HEK293T was obtained from the American Type Culture Collection (Manassas, VA, USA). For the Nrf2 reporter gene assay, 1 μg of a plasmid containing a promoter with an ARE driving luciferase expression was used. Exogenous proteins were expressed by transfecting HEK293T cells with 1 μg of Nrf2 and PAK4 with Lipofectamine 3000 (Invitrogen, Carlsbad, CA, USA). Luciferase activity was measured using a Dual-Luciferase Reporter Assay (Promega, Madison, WI, USA) by Lumat LB 9507 (Berthold, Bad Wildbad, Germany).

## Cc1nn(-c2cccc(C#CC3(O)CCCCC3)c2)c2ncnc(N)c12 [Compound 14b, 3-(4-Amino-3-methylpyrazolo[3,4-d]pyrimidin-1-yl)phenylethynylcyclohexan-1-ol]
[1]; 1 μM
  H/R-induced oxidative stress (DCF fluorescence, MDA, GSH): decrease
[1]; 1 μM before reoxygenation, 12 h reoxygenation, vs only H/R
  Cell damage (LDH release) after H/R: markedly decreased
[1]; 1 μM, Annexin-V staining and Western blotting
  H/R-induced apoptotic cell death: decrease
[1]; 1 μM, H/R, vs control group
  Phosphorylation levels of IKKβ and p65 in primary hepatocytes: decreased
  Protein levels of IκBα in primary hepatocytes: increased
[1]; 1 μM, culture media protein and hepatocyte mRNA
  H/R-induced cytokine release: decrease
[2]
  Nrf2 transcriptional activity (ARE luciferase activity): increased
